Key:
L1210 cells = test system: L1210 cells; set-up: method as in doi:10.1135/cccc19822806; conditions: cited from earlier work
murine leukemia L1210 = assay: Cytostatic activity assay, L1210; format: cell-based; conditions: Mus musculus; L1210 cells, 48 h; read-out: IC50 (50% cytostatic inhibitory concentration, cell proliferation)
Protocol: (§1) The 50% cytostatic inhibitory concentration (IC50) causing a 50% decrease in cell proliferation was determined against murine leukemia L1210, human lymphocyte CEM, human cervix carcinoma HeLa, and human dermal microvascular endothelial cells (HMEC-1).
(§2) All assays were performed in 96-well microtiter plates. To each well were added (5–7.5) × 10^4 tumor cells and a given amount of the test compound. The cells were allowed to proliferate for 48 h (murine leukemia L1210 cells) or 72 h (human lymphocytic CEM and human cervix carcinoma HeLa cells) at 37 °C in a humidified CO2-controlled atmosphere. At the end of the incubation period, the cells were counted in a Coulter counter. The IC50 (50% inhibitory concentration) was defined as the concentration of the compound that inhibited cell proliferation by 50%.

[1] = test system: human cervix carcinoma HeLa; assay: Cytostatic activity assay, HeLa; format: cell-based; conditions: HeLa cells, 72 h, read-out: IC50 (50% cytostatic inhibitory concentration, cell proliferation)
Protocol: as §1, §2

SMILES | melting point | further results
CCOP(=O)(CNC(=O)Cn1ccc(NC(=O)OCc2ccccc2)nc1=O)OCC (hydrate or solvate) | 180 to 182 °C | 
CCOP(=O)(CCCNC(=O)Cn1cnc2c(Cl)nc(N)nc21)OCC | 180 to 181 °C | 
CCOP(=O)(CCCNC(=O)Cn1ccc(=O)[nH]c1=O)OCC (hydrate or solvate) | 120 to 122 °C | 
CCOP(=O)(CNC(=O)Cn1cnc2c(=O)[nH]c(N)nc21)OCC (hydrate or solvate) | 165 °C (dec.) | 
CCOP(=O)(CCCNC(=O)Cn1c(=O)[nH]c(=O)c2ccccc21)OCC | 168 to 169 °C | 
CCOP(=O)(CCNC(=O)Cn1cc(Br)c(=O)[nH]c1=O)OCC | 211 to 213 °C | 
O=C(Cn1cc(F)c(=O)[nH]c1=O)NC(CO)(CO)CO [18e] |  | concentration at which found active in vitro against L1210 cells (L1210 cells): 15 µM
CCOP(=O)(CNC(=O)Cn1c(=O)[nH]c(=O)c2ccccc21)OCC (hydrate or solvate) | 203 to 205 °C | 
CCOP(=O)(CCCNC(=O)Cn1cnc2c(=O)[nH]c(N)nc21)OCC (hydrate or solvate) | 155 °C (dec.) | 
CCOP(=O)(CNC(=O)Cn1cc(F)c(=O)[nH]c1=O)OCC (hydrate or solvate) | 205 to 208 °C | 
CCOP(=O)(CCCNC(=O)Cn1cc(F)c(=O)[nH]c1=O)OCC (hydrate or solvate) | 143 to 144 °C | 
CCOP(=O)(CCNC(=O)Cn1ccc(NC(=O)OCc2ccccc2)nc1=O)OCC | 127 to 128 °C | 
CCOP(=O)(CNC(=O)Cn1ccc(=O)[nH]c1=O)OCC | 215 to 217 °C | 
CCOP(=O)(CNC(=O)Cn1cnc2c(Cl)nc(N)nc21)OCC (hydrate or solvate) | 130 to 132 °C | 
CCOP(=O)(CCNC(=O)Cn1ccc(=O)[nH]c1=O)OCC | 138 to 140 °C | 
CCOP(=O)(CNC(=O)Cn1cc(Br)c(=O)[nH]c1=O)OCC | 211 to 213 °C | 
CCOP(=O)(CCCNC(=O)Cn1ccc(NC(=O)OCc2ccccc2)nc1=O)OCC | 150 to 151 °C | 
CCOP(=O)(CCNC(=O)Cn1c(=O)[nH]c(=O)c2ccccc21)OCC | 180 to 182 °C | 
CCOP(=O)(CNC(=O)Cn1cc(C)c(=O)[nH]c1=O)OCC | 211.5 to 212.5 °C | 
CCOP(=O)(COCCNC(=O)Cn1cc(F)c(=O)[nH]c1=O)OCC [18d] | 69 to 70 °C | IC50 (murine leukemia L1210): 89 ± 16 µM; IC50 [1]: 194 ± 19 µM
CCOP(=O)(CCNC(=O)Cn1cnc2c(Cl)nc(N)nc21)OCC | 158 to 160 °C | 
CCOP(=O)(CCNC(=O)Cn1cc(C)c(=O)[nH]c1=O)OCC | 196 to 197 °C | 
CCOP(=O)(CCCNC(=O)Cn1cc(Br)c(=O)[nH]c1=O)OCC | 164 to 166 °C | 
CCOP(=O)(CNC(=O)Cn1cnc2c(N(C(=O)OC(C)(C)C)C(=O)OC(C)(C)C)ncnc21)OCC | 128 to 130 °C | 
CCOP(=O)(CCNC(=O)Cn1cc(F)c(=O)[nH]c1=O)OCC | 185 to 186 °C | 
CCOP(=O)(CCCNC(=O)Cn1cc(C)c(=O)[nH]c1=O)OCC (hydrate or solvate) | 183 to 184 °C | 
CCOP(=O)(CCNC(=O)Cn1cnc2c(=O)[nH]c(N)nc21)OCC (hydrate or solvate) | 175 °C (dec.) | 
